Measurements published in patent US11667651B2, “Aminopyridine derivatives as phosphatidylinositol phosphate kinase inhibitors” (HiberCell, Inc., priority 2017, dated 2023).

Columns and labels:
PIP4K2B = target: T1, PIP4K2B (Homo sapiens, UniProt P78356); assay: Trans-FI P kinase assay PIP4K2B (Table 4); format: biochemical; details: compounds listed under IC50 bins; read-out: Trans-FI P kinase assays: PIP4K2B IC50
T1 construct: made in house; host or cells: E. coli
T1 sequence (P78356 1-416): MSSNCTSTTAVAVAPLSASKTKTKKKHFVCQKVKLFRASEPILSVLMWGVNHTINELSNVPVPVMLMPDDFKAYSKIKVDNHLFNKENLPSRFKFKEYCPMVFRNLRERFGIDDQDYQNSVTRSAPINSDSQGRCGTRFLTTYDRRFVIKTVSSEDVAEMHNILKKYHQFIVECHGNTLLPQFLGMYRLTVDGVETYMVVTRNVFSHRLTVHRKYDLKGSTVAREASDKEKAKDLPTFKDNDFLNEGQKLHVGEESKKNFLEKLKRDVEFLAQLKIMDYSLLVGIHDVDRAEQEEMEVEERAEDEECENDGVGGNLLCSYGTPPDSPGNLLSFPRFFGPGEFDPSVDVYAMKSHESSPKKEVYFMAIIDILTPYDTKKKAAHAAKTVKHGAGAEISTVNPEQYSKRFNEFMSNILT
In short: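 Transcreener FI detection (Ex 584/Em 623) of GDP, converted via calibration curve, gives IC50 from residual activity versus log concentration (highest 4.8 μM). Reaction: 80 μM PI5P plus DOPE carrier, 100 μM GTP, 5 nM GST-tagged enzyme, pH 7.3 HEPES with MgCl2 and 5% DMSO, 2 h after 1 h enzyme-compound preincubation at 27° C.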

PIP4K2A = target: T2, PIP4K2A (Homo sapiens, UniProt P48426); assay: ADP-glo kinase assay PIP4K 2A (Table 3); format: biochemical; design: made in house; host or cells: E. coli; details: compounds listed under IC50 bins
T2 sequence (P48426 1-406): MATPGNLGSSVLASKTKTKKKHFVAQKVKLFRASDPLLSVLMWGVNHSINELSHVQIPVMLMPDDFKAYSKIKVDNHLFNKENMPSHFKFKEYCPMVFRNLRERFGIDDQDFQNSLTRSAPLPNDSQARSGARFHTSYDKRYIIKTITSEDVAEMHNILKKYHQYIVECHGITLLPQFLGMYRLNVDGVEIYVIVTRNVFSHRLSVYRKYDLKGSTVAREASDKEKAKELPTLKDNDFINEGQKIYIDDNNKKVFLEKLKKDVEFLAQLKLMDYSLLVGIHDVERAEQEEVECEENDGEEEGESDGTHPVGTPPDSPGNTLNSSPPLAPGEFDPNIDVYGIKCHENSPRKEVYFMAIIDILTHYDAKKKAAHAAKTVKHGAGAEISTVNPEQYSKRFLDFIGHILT
Procedure: Dilution series of the compounds were prepared in DMSO at 100 times the final assay concentration (n1=n0/3 in 10 points). The compounds were further diluted to three times the assay concentration in assay buffer (20 mM MOPS pH 7.2, 25 mM magnesium chloride, 0.005% Tween 20). 6 μL of the diluted compounds were added to a 384 well assay plate followed by 9 μL of a mix consisting of 4 nM PIP4K2A (full length protein, SignalChem) and 100 μM PI(5)P diC8 (Tebu-Bio). Enzyme and compounds were pre-incubated at room temperature for 15 minutes.
Then 3 μL of a solution containing 60 μM ATP (Promega) in assay buffer was added to the wells containing compound and enzyme and mixing was performed by pipetting several times. The reaction was incubated at room temperature for 1 h. Then 18 μL of ADP-Glo™ Reagent (Promega) was added to stop the kinase reaction and deplete the unconsumed ATP, mixing was performed by pipetting several times. The plate was incubated at room temperature for 40 minutes before addition of 36 μL of Kinase Detection Reagent (Promega) to convert ADP to ATP and introduce luciferase and luciferin to detect ATP. The reaction was incubated at room temperature for 40 minutes before the luminescence was measured in a in a Victor 3V 1420 multilabel counter (Perkin Elmer).
Percent inhibition of the compounds as compared to dimethyl sulfoxide treated control samples was calculated. Compound concentration versus percent inhibition were fitted to generate IC50 values. […]

Row | SMILES | IC50 (PIP4K2B) | IC50 (PIP4K2A)
1 | CN(C)CCCC(=O)Nc1cccc(CCC(=O)Nc2cncc(Nc3ccc(-c4ccc(N5CCCC5=O)cc4)cn3)c2)c1 [Example 170, 4-(dimethylamino)-N-(3-(3-oxo-3-((5-((5-(4-(2-oxopyrrolidin-1-yl)phenyl)pyridin-2-yl)amino)pyridin-3-yl)amino)propyl)phenyl)butanamide] | 10 to 100 nM | 10 to 100 nM
2 | CC(C)c1nc(Nc2cnc3c(c2)N2C(=O)C4(CC4)C[C@H]2CO3)ncc1-c1ccc(N2CCCC2=O)cc1 [Example 216, (S)-2′-((4-isopropyl-5-(4-(2-oxopyrrolidin-1-yl)phenyl)pyrimidin-2-yl)amino)-6a′,7′-dihydro-6′H,9′H-spiro[cyclopropane-1,8′-pyrido[2,3-b]pyrrolo[1,2-d][1,4]oxazin]-9′-one] | 1 to 10 nM | ≤ 1 nM
3 | CN(C)CCCC(=O)Nc1ccc(C(=O)Nc2cncc(Nc3ccc(-c4ccc(N5CCCC5=O)cc4)cn3)c2)cc1 [Example 168, 4-(4-(dimethylamino)butanamido)-N-(5-((5-(4-(2-oxopyrrolidin-1-yl)phenyl)pyridin-2-yl)amino)pyridin-3-yl)benzamide] | 10 to 100 nM | 10 to 100 nM
4 | O=C1CCCN1c1ccc(-c2cnc(Nc3cnc4c(c3)N3C(=O)C5(CC5)C[C@H]3CO4)cc2C2CC2)cc1 [Example 211, (S)-2′-((4-cyclopropyl-5-(4-(2-oxopyrrolidin-1-yl)phenyl)pyridin-2-yl)amino)-6a′,7′-dihydro-6′H,9′H-spiro[cyclopropane-1,8′-pyrido[2,3-b]pyrrolo[1,2-d][1,4]oxazin]-9′-one] | 1 to 10 nM | ≤ 1 nM
5 | Cc1cc(N2CCCC2=O)ccc1-c1ccc(Nc2cnc3c(c2)N2C(=O)C4(CC4)C[C@H]2CO3)nc1 [Example 208, (S)-2′-((5-(2-methyl-4-(2-oxopyrrolidin-1-yl)phenyl)pyridin-2-yl)amino)-6a′,7′-dihydro-6′H,9′H-spiro[cyclopropane-1,8′-pyrido[2,3-b]pyrrolo[1,2-d][1,4]oxazin]-9′-one] | 10 to 100 nM | 10 to 100 nM
6 | COc1nc(Nc2cnc3c(c2)N2C(=O)C4(CC4)C[C@H]2CO3)ncc1-c1ccc(N2CCCC2=O)cc1 [Example 200, (S)-2′-((4-methoxy-5-(4-(2-oxopyrrolidin-1-yl)phenyl)pyrimidin-2-yl)amino)-6a′,7′-dihydro-6′H,9′H-spiro[cyclopropane-1,8′-pyrido[2,3-b]pyrrolo[1,2-d][1,4]oxazin]-9′-one] | 1 to 10 nM | ≤ 1 nM
7 | O=C([C@H]1CCOC1)N1CCN(c2cncc(Nc3ccc(-c4ccc(N5CCCC5=O)cc4)cn3)c2)CC1 [Example 245, (S)-1-(4-(6-((5-(4-(tetrahydrofuran-3-carbonyl)piperazin-1-yl)pyridin-3-yl)amino)pyridin-3-yl)phenyl)pyrrolidin-2-one] | 10 to 100 nM | 100 to 1000 nM
8 | CC(C)c1cc(Nc2cnc3c(c2)N2C(=O)C4(CC4)C[C@H]2CO3)ncc1-c1ccc(N2CCCC2=O)cc1 [Example 210, (S)-2′-((4-isopropyl-5-(4-(2-oxopyrrolidin-1-yl)phenyl)pyridin-2-yl)amino)-6a′,7′-dihydro-6′H,9′H-spiro[cyclopropane-1,8′-pyrido[2,3-b]pyrrolo[1,2-d][1,4]oxazin]-9′-one] | 1 to 10 nM | ≤ 1 nM
9 | O=C(Nc1cncc(Nc2ccc(-c3ccc(N4CCCC4=O)cc3)cn2)c1)N1CCOCC1 [Example 251, N-(5-((5-(4-(2-oxopyrrolidin-1-yl)phenyl)pyridin-2-yl)amino)pyridin-3-yl)morpholine-4-carboxamide] | 10 to 100 nM | 100 to 1000 nM
10 | Cc1nc(Nc2cnc3c(c2)N2C(=O)C4(CC4)C[C@H]2CO3)ncc1-c1ccc(N2CCCC2=O)cc1 [Example 201, (S)-2′-((4-methyl-5-(4-(2-oxopyrrolidin-1-yl)phenyl)pyrimidin-2-yl)amino)-6a′,7′-dihydro-6′H,9′H-spiro[cyclopropane-1,8′-pyrido[2,3-b]pyrrolo[1,2-d][1,4]oxazin]-9′-one] | 1 to 10 nM | 1 to 10 nM
11 | O=C(Nc1cncc(Nc2ccc(-c3ccc(N4CCCC4=O)cc3)cn2)c1)C1CC1c1ccccc1 (centres unmarked) [Example 247, N-(5-((5-(4-(2-oxopyrrolidin-1-yl)phenyl)pyridin-2-yl)amino)pyridin-3-yl)-2-phenylcyclopropane-1-carboxamide] | 10 to 100 nM | 1 to 10 nM
12 | Cc1cc(-c2ccc(N3CCCC3=O)cc2)cnc1Nc1cnc2c(c1)N1C(=O)CC[C@H]1CO2 [Example 194, (S)-2-((3-methyl-5-(4-(2-oxopyrrolidin-1-yl)phenyl)pyridin-2-yl)amino)-6,6a,7,8-tetrahydro-9H-pyrido[2,3-b]pyrrolo[1,2-d][1,4]oxazin-9-one] | > 1000 nM | > 1000 nM

Other lines, results leading:

Row | IC50 (PIP4K2B) | IC50 (PIP4K2A) | SMILES
13 | 10 to 100 nM | 1 to 10 nM | O=C1CCCN1c1ccc(-c2ccc(Nc3cnc4c(c3)N3C(=O)OC[C@H]3CO4)nc2)cc1F [Example 295, (R)-8-((5-(3-fluoro-4-(2-oxopyrrolidin-1-yl)phenyl)pyridin-2-yl)amino)-3a,4-dihydro-1H,3H-oxazolo[3,4-d]pyrido[2,3-b][1,4]oxazin-1-one]
14 | 10 to 100 nM | 1 to 10 nM | CC(C)(N)c1cc(Nc2cnc3c(c2)N2C(=O)CC[C@H]2CO3)ncc1-c1ccc(N2CCCC2=O)cc1F [Example 266, (S)-2-((4-(2-aminopropan-2-yl)-5-(2-fluoro-4-(2-oxopyrrolidin-1-yl)phenyl)pyridin-2-yl)amino)-6,6a,7,8-tetrahydro-9H-pyrido[2,3-b]pyrrolo[1,2-d][1,4]oxazin-9-one]
15 | 10 to 100 nM | 10 to 100 nM | CC1CN(C(=O)Nc2cncc(Nc3ccc(-c4ccc(N5CCCC5=O)cc4)cn3)c2)CCN1 (centres unmarked) [Example 256, 3-methyl-N-(5-((5-(4-(2-oxopyrrolidin-1-yl)phenyl)pyridin-2-yl)amino)pyridin-3-yl)piperazine-1-carboxamide]
16 | 1 to 10 nM | 1 to 10 nM | O=C1CCCN1c1ccc(-c2ccc(Nc3cnc4c(c3)N3C(=O)C5(CC5)C[C@H]3CO4)nc2)cc1 [Example 260, (S)-2′-((5-(4-(2-oxopyrrolidin-1-yl)phenyl)pyridin-2-yl)amino)-6a′,7′-dihydro-6′H,9′H-spiro[cyclopropane-1,8′-pyrido[2,3-b]pyrrolo[1,2-d][1,4]oxazin]-9′-one]
17 | 10 to 100 nM | 100 to 1000 nM | O=C(Nc1cncc(Nc2ccc(-c3ccc(N4CCCC4=O)cc3)cn2)c1)N1CCNC(C2CC2)C1 (centres unmarked) [Example 257, 3-cyclopropyl-N-(5-((5-(4-(2-oxopyrrolidin-1-yl)phenyl)pyridin-2-yl)amino)pyridin-3-yl)piperazine-1-carboxamide]
18 | 10 to 100 nM | 10 to 100 nM | CC1C[C@H]2COc3ncc(Nc4ccc(-c5ccc(N6CCCC6=O)cc5)cn4)cc3N2C1=O (stereo partly drawn) [Example 259, (6aS)-8-methyl-2-((5-(4-(2-oxopyrrolidin-1-yl)phenyl)pyridin-2-yl)amino)-6,6a,7,8-tetrahydro-9H-pyrido[2,3-b]pyrrolo[1,2-d][1,4]oxazin-9-one]
19 | 10 to 100 nM | 10 to 100 nM | O=C(Nc1cncc(Nc2ccc(-c3ccc(N4CCCC4=O)cc3)cn2)c1)c1nn[nH]n1 [Example 254, N-(5-((5-(4-(2-oxopyrrolidin-1-yl)phenyl)pyridin-2-yl)amino)pyridin-3-yl)-2H-tetrazole-5-carboxamide]
